Test results published in US9498486B1, “Method for controlled release oral dosage of a vitamin D compound” (OPKO RENAL, LLC, priority 2007, dated 2016).

How the values were obtained:
[1] = Expected rise in serum 25-hydroxyvitamin D3 in a human after a single dose; assay type: in vivo; conditions: single dose of 50 μg to a human (about 60 kg)
[2] = Example 1: single-dose pharmacokinetics of serum 25-hydroxyvitamin D3 in miniature swine; assay type: in vivo; conditions: Yucatan miniature swine
Protocol: Nine oral vitamin D formulations were prepared according to Table 3 below by homogeneously mixing the identified components in the amounts shown and filling the mixtures into hard gelatin capsules. Formulation 9 is an immediate-release formulation according to the prior art, wherein MIGLYOL 812N is the trade name for caprylic/capric triglycerides, available from CONDEA Chemie GmbH of Cranford, N.J., USA. […] Each group included five animals.
Blood was collected pre-dose, and at 0.5, 1, 2, 4, 6, 8, 12, 24, 48, 96, 168, 240, 336, 432, 504, 576, and 672 hours post dosing. Serum 25-hydroxyvitamin D3 levels were assayed by Liquid Chromatography/Mass Spectrometry/Mass Spectrometry (LC MS/MS).

[3] = 250 μg via intravenous injection, AVG

Structure (SMILES) | expected increase in serum levels of 25-hydroxyvitamin D3 [1] | AUC (0-672 hr) ([2]; 250 μg 25-hydroxyvitamin D3 via intravenous injection, AVG) | BA ([2]; 250 μg via intravenous injection) | AUC (0-INF) [2, 3] | Cmax [2, 3] | T1/2 [2, 3] | Tmax [2, 3]
C=C1CC[C@H](O)C/C1=C/C=C1\CCC[C@]2(C)[C@@H]([C@H](C)CCCC(C)(C)O)CC[C@@H]12 [25-hydroxyvitamin D3] | about 1.4 ng/ml |  |  |  |  |  | 
C=C1CC[C@H](O)C/C1=C/C=C1\CCC[C@]2(C)[C@@H]([C@H](C)CCCC(C)(C)O)CC[C@@H]12 [Group 10, 25-hydroxyvitamin D3] |  | 15038.0 ng·h/mL | 100.0% | 16616.1 ng·h/mL | 154.9 ng/mL | 132.4 h | 1.5 h
